Results taken from patent US20250295612A1, “NOVEL AMYLOID-BETA AGGREGATE DEGRADER AND BRAIN-TARGETING DRUG DELIVERY SYSTEM USING SAME” (UNIVERSITY-INDUSTRY COOPERATION GROUP OF KYUNG HEE …, priority 2022, published 2025).

Assays:
[1] = biological target: T1, amyloid-beta plaques (amyloid-beta (Aβ) 1-42) (Homo sapiens, UniProt P05067); assay: Thioflavin T (ThT) fluorescence analysis of amyloid-beta plaque disaggregation; format: biochemical
T1 construct: amyloid-beta (Aβ) 1-42 (Anaspec, AS-20276, MW=4514.1, 1 mg); purchased Anaspec AS-20276
Description: To prepare amyloid-beta plaques, amyloid-beta (Aβ) 1-42 (Anaspec, AS-20276, MW=4514.1, 1 mg) was dissolved in a 1× PBS buffer (pH 7.4, 1 mL) to a final concentration of 222 μM. The solution was incubated (200 rpm) at 37° C. for 3 days, and the formed amyloid-beta plaques (Aβ plaques) were used in the following in vitro experiment without additional purification. From the formed library, hit compounds were identified through fluorescence analysis using thioflavin T (ThT), a probe of amyloid-beta plaques. Specifically, each amyloid-beta plaque disaggregation candidate (100 μM) was mixed with amyloid-beta plaques (10 μM) and ThT (10 μM), and incubated at 37° C. for 24 hours, and then a change in fluorescence intensity of ThT at 482 nm was confirmed (excitation wavelength: 413 nm). The absorption and emission spectra of ThT were obtained using UV/vis absorption spectroscopy (Agilent, California, USA) and a spectrofluorophotometer (Shimadzu Corp., Kyoto, Japan). For Compound P (ANA), a hit compound confirmed in Example 1, the amyloid-beta plaque disaggregation efficacy under various concentration conditions and pH conditions was confirmed through ThT assay in the same manner as in Example 1, and an emission intensity plot of ThT (10 μM) at 482 nm was shown in FIG. 2 (excitation wavelength: 413 nm).

[2] = biological target: T2, amyloid-beta plaques (Homo sapiens, UniProt P05067); assay: Confocal microscopy of amyloid-beta plaques with thioflavin S (ThS); conditions: incubation with ANA for 24 hours
T2 construct: amyloid-beta (Aβ) 1-42 (Anaspec, AS-20276, MW=4514.1, 1 mg); purchased Anaspec AS-20276
Description: (§1) To prepare amyloid-beta plaques, amyloid-beta (Aβ) 1-42 (Anaspec, AS-20276, MW=4514.1, 1 mg) was dissolved in a 1× PBS buffer (pH 7.4, 1 mL) to a final concentration of 222 μM. The solution was incubated (200 rpm) at 37° C. for 3 days, and the formed amyloid-beta plaques (Aβ plaques) were used in the following in vitro experiment without additional purification.
In addition, to evaluate the presence of amyloid-beta plaques (AB plaques) and a change in the disaggregation morphology of amyloid-beta plaques according to incubation with ANA for 24 hours, thioflavin S (ThS), a probe of amyloid-beta plaques, was additionally treated, and the change thereof was confirmed by fluorescence analysis using a confocal microscope. The samples (Aβ plaques, Aβ plaques +ANA) were added to 1 mL of a ThS (0.5%) solution, and each mixture was pipetted onto a slide glass and dried overnight at room temperature. Then, fluorescence images were obtained using a laser scanning confocal microscope (CLSM, LSM800, Zeiss, Oberkochen, Germany). Confocal images were obtained under excitation at 520 nm (laser power: 3.00%) using a detector (GaAsP, detector gain: 680 V, detector wavelength: 548 to 617 nm).

[3] = biological target: T2, amyloid-beta plaques; assay: ThT emission with supernatant of BCAP (released ANA); format: biochemical; conditions: PBS pH 7.4, 25° C., ThT 10 μM
[4] = biological target: T2, amyloid-beta plaques; assay: TEM analysis of amyloid-beta plaque morphology; conditions: ANA (100 µM), plaques 20 μM
Description: as §1
For TEM analysis, amyloid-beta plaques (20 μM) or amyloid-beta plaques (20 μM) and a compound (ANA, 100 μM) were treated on copper grids at room temperature. Each grid treated with samples (Aβ plaques or Aβ plaques+ANA) was washed three times with DI H2O and then stained with uranyl acetate (1% w/v DI H2O, 5 μL) for 1 minute. The uranyl acetate was removed, the grids were dried at room temperature for 20 minutes, and then the morphology of amyloid-beta plaques was analyzed by transmission electron microscopic images (TEM, Tecnai, G2 F30ST, FEI Company, OR, USA).

T1 sequence (P05067 672-713 limits assumed): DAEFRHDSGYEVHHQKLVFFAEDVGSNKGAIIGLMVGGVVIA
T2 sequence (P05067 672-713 limits assumed): as above

## Nc1ccc2cc(S(=O)(=O)O)ccc2c1 [ANA, 6-amino-2-naphthalenesulfonic acid]
[1]; ANA 10 μM to 100 μM, plaques 10 μM
  amyloid-beta plaque disaggregation efficacy versus concentration: concentration-dependent manner
[1]; ANA 10 μM, plaques 10 μM
  amyloid-beta plaque disaggregation efficacy at low concentration: significantly high amyloid-beta plaque disaggregation efficacy
[1]; candidate 100 μM, amyloid-beta plaques 10 μM, ThT 10 μM, 37° C., 24 hours, 482 nm
  fluorescence intensity change of ThT compared to a control group: 23%
[1]; candidate 100 μM, library screening
  amyloid-beta plaque disaggregation efficacy among A-T candidates: highest amyloid-beta plaque disaggregation efficacy
[1]; pH 3, 5, 7, 7.4, and 9
  amyloid-beta plaque disaggregation efficacy under various pH conditions: showed amyloid-beta plaque disaggregation efficacy at all pH conditions
[1]; pH 7.4
  amyloid-beta plaque disaggregation efficacy at pH of the brain: highest amyloid-beta plaque disaggregation efficacy
[2]
  fluorescence intensity of ThS after treatment: significantly reduced
[3]
  amyloid-beta plaque disaggregation efficacy of ANA released from BCAP: still has the amyloid-beta plaque disaggregation efficacy
[4]
  morphology of amyloid-beta plaques after treatment (TEM): disaggregated and released into monomers
